Measurements reported in the Deep4Chem optical property database.

Test: solvent given as SMILES
[1] = in O=P(c1ccccc1)(c1ccccc1)c1ccc2oc3ccc(P(=O)(c4ccccc4)c4ccccc4)cc3c2c1

In the case of `C=Cc1cc2ccc(OC(=O)c3ccccc3)cc2oc1=O`, the emission maximum (in CC#N) is reported as 420 nm.
`CN1C(=CC2=C([O-])C(=CC3=[N+](C)c4ccccc4C3(C)C)C2=C2C(=O)c3ccccc3C2=O)C(C)(C)c2ccccc21` gave an emission maximum (in ClC(Cl)Cl) of 699 nm.
With `Cc1cc(C)c(-c2c3ccccc3c3ccc4cc5c(-c6c(C)cc(C)cc6C)c6ccccc6c6ccc7cc2c3c4c7c56)c(C)c1` the emission maximum (in ClCCl) was 617 nm.
For `CC1(C)C2=C(c3ccc(N(c4ccccc4)c4ccccc4)cc31)P(=O)(c1ccccc1)c1ccccc12` (stereo not given), the emission maximum (in CC#N) was 580 nm, the emission maximum (in CO) was 598 nm and the emission maximum (in Cc1ccccc1) was 511 nm.
Work on `COc1cccc(OC)c1C1=C2C(C)=CC(C)=[N+]2[B-](F)(F)n2c(C)cc(C)c21` yielded an emission maximum (in C1CCOC1) of 520 nm, an emission maximum (in CC#N) of 513 nm and an emission maximum (in CC(=O)C(C)(C)C) of 520 nm. It also gave an emission maximum (in CC(C)=O) of 516 nm, an emission maximum (in CCCCCC) of 519 nm and an emission maximum (in CCOC(C)=O) of 520 nm. For the same molecule, the emission maximum (in CO) was 518 nm.
With `CCN(CC)c1ccc2cc(C#N)c(=N)oc2c1` the emission maximum (in ClCCl) was 460 nm.
With `CN(C)c1ccc2c(c1)C(C)(C)C1=CC(=[N+](C)C)C=CC1=C2` the emission maximum (in CO) was 620 nm and the emission maximum (in O) was 621 nm.
For `CCOC(=O)CCOc1ccccc1C(c1c(C)[nH]c2ccccc12)c1c(C)[nH]c2ccccc12`, the emission maximum (in C1CCCCC1) was 329 nm, the emission maximum (in CC#N) was 340 nm and the emission maximum (in CO) was 345 nm. For the same molecule, the emission maximum (in O) was 350 nm.
For `C(=C(c1ccccc1)c1ccccc1)c1ccc(C=C(c2ccccc2)c2ccccc2)cc1`, the emission maximum (in C1CCOC1) was 461 nm.
For `Cc1cccc2c3ccccc3n(-c3ccc(-c4c(-c5ccccc5)c(C#N)c(C#N)c(-c5ccccc5)c4-c4ccc(-n5c6ccccc6c6cccc(C)c65)cc4)cc3)c12`, the emission maximum (in Cc1ccccc1) was 440 nm and the emission maximum [1] was 450 nm.
`CCCCC(CC)Cn1c2cc(C#N)ccc2c2cc(-c3ccc(N(c4ccccc4)c4ccccc4)cc3)c(C#N)cc21` (stereo not given) gave an emission maximum (in C1CCCCC1) of 444 nm, an emission maximum (in C1CCOC1) of 507 nm and an emission maximum (in CC#N) of 548 nm. It also gave an emission maximum (in CCCCOCCCC) of 464 nm, an emission maximum (in CCN(CC)CC) of 461.69 nm and an emission maximum (in CCOC(C)=O) of 463 nm. It also gave an emission maximum (in CCOCC) of 501 nm, an emission maximum (in CN(C)C=O) of 543 nm and an emission maximum (in Cc1ccccc1) of 474 nm. It also gave an emission maximum (in ClC=C(Cl)Cl) of 477 nm and an emission maximum (in ClCCl) of 517 nm.
Work on `CC(C)n1c2cc(O)c(F)cc2c(=O)c2cc(F)c(O)cc21` yielded an emission maximum (in CCO) of 438 nm.
Work on `COc1cc2c(cc1OC)C1=C[C@H](c3ccc(Cl)cc3)C3(C(C#N)=C(C#N)N1CC2)c1cc(Cl)ccc1-c1ccc(Cl)cc13` yielded an emission maximum (in ClCCl) of 406 nm.
Molecule `FC(F)(F)c1ccc(C2=Cc3ccccc3[Si]2(c2ccccc2)c2ccccc2)cc1` has an emission maximum (in ClCCl) of 401 nm.
`COC(=O)c1noc(-c2ccccc2)c1Br` showed an emission maximum (in C1CCCCC1) of 344 nm.
Molecule `CN(C)c1[se]c(-c2ccc(Cl)cc2)nc1-c1ccccc1` has an emission maximum (in ClC(Cl)Cl) of 455 nm.
`N#Cc1c(N2CCCCC2)cc(-c2ccc3ccccc3c2)c2c1Cc1ccccc1-2` gave an emission maximum (in C1CCOC1) of 465 nm.
Work on `COC(=O)C(CCCCNC(=O)CCNc1cccc2ccccc12)NC(C)=O` (stereo not given) yielded an emission maximum (in CCO) of 417 nm.
In the case of `c1cc(N2CCCC2)ccn1`, the emission maximum (in CC1CCCCC1) is reported as 313 nm, the emission maximum (in CCO) is reported as 313 nm and the emission maximum (in ClC(Cl)Cl) is reported as 313 nm.
In the case of `Clc1ccc(-c2nc(-c3ccccc3)sc2N(c2ccccc2)c2ccccc2)cc1`, the emission maximum (in ClC(Cl)Cl) is reported as 463 nm.
In the case of `CC1(C)C(/C=C/C2=C(Cl)C(=C/C=C3/N(Cc4ccc([N+](=O)[O-])cc4)c4ccccc4C3(C)C)/CCC2)=[N+](Cc2ccc([N+](=O)[O-])cc2)c2ccccc21`, the emission maximum (in CO) is reported as 807 nm.
With `CN(C)c1ccc(-c2cc(-c3cccs3)nc(-c3ccccc3)n2)cc1` the emission maximum (in ClC(Cl)Cl) was 473 nm.
`c1ccc2cc(-c3c4ccccc4c(-c4ccc(-c5ccc(-n6c7ccccc7c7ccccc76)cc5)cc4)c4ccccc34)ccc2c1` showed an emission maximum (in ClCCl) of 427 nm.
Work on `Cc1cc2ccccc2c2c1c1ccccc1n2C(=O)OC(C)(C)C` yielded an emission maximum (in ClCCl) of 355 nm.
Molecule `c1ccc(-c2cc(-c3ccccc3)cc(-c3ccc4c(c3)C3(c5cc(-c6cc(-c7ccccc7)cc(-c7ccccc7)c6)ccc5-4)c4ccccc4-c4c3c3c5ccccc5ccc3c3ccccc43)c2)cc1` has an emission maximum (in C1CCOC1) of 420 nm.
With `c1ccc(-c2nc(-c3ccc(N4c5ccccc5C(c5ccccc5)(c5ccccc5)c5ccccc54)cc3)cc(-c3ccc(N4c5ccccc5C(c5ccccc5)(c5ccccc5)c5ccccc54)cc3)n2)cc1` the emission maximum (in Cc1ccccc1) was 456 nm and the emission maximum [1] was 462 nm.
In the case of `CC1(C)c2ccccc2N(c2ccc(C(=CC#N)c3ccc(N4c5ccccc5C(C)(C)c5ccccc54)cc3)cc2)c2ccccc21`, the emission maximum (in Cc1ccccc1) is reported as 519 nm.
Work on `CC1=c2ccccc2=[N+]2C1=Cc1c3ccccc3c(-c3[nH]c4ccccc4c3C)n1[B-]2(F)F` yielded an emission maximum (in ClCCl) of 648 nm.
In the case of `O=[N+]([O-])c1ccc(N/C=C/C=[NH+]c2ccc([N+](=O)[O-])cc2)cc1`, the emission maximum (in CS(C)=O) is reported as 508 nm.
`c1ccc2sc(-c3ccc(-c4nnc(-c5ccc(-c6nnc(-c7ccc(-c8cc9ccccc9s8)s7)o6)cc5)o4)s3)cc2c1` showed an emission maximum (in C1COCCO1) of 397 nm, an emission maximum (in CC#N) of 399 nm and an emission maximum (in CC(=O)N(C)C) of 406 nm. For the same molecule, the emission maximum (in CCCCCCCCCCO) was 389 nm, the emission maximum (in CCCCCCCCO) was 399 nm and the emission maximum (in CCCCCCO) was 399 nm. It also gave an emission maximum (in CCCCO) of 399 nm, an emission maximum (in CCO) of 400 nm and an emission maximum (in CS(C)=O) of 423 nm. For the same molecule, the emission maximum (in Cc1ccccc1) was 399 nm and the emission maximum (in ClC(Cl)Cl) was 399 nm.
With `Cc1ccc(C2=C(/C=C/C(=O)OC3CC[C@@]4(C)C(=CC[C@H]5[C@@H]6CC[C@H]([C@H](C)CCCC(C)C)[C@@]6(C)CC[C@@H]54)C3)C(c3ccc(C)cc3)=[N+]3C2=Nc2c(-c4ccc(C)cc4)c(Br)c(-c4ccc(C)cc4)n2[B-]3(F)F)cc1` (stereo not given in full) the emission maximum (in ClC(Cl)Cl) was 704 nm.
With `CC(C)(C(=O)c1ccc(N2c3ccccc3Oc3ccccc32)cc1)C(=O)c1ccc(N2c3ccccc3Oc3ccccc32)cc1` the emission maximum (in Cc1ccccc1) was 562 nm and the emission maximum (in c1ccc2c(c1)c1ccccc1n2-c1ccc(-c2ccc(-n3c4ccccc4c4ccccc43)cc2)cc1) was 520.81 nm.
`c1cc2ccc1CCCc1ccc(c3nsnc13)CCC2` showed an emission maximum (in C1CCCCC1) of 468 nm, an emission maximum (in CC#N) of 497 nm and an emission maximum (in ClC(Cl)Cl) of 496 nm.
For `COc1c2ccccc2c(-c2ccccc2)c2ccccc12`, the emission maximum (in C1COCCO1) was 424 nm, the emission maximum (in CCCCCC) was 420 nm and the emission maximum (in CCCCCCC) was 420 nm. It also gave an emission maximum (in CCCCO) of 426 nm, an emission maximum (in CCO) of 426 nm and an emission maximum (in CN(C)C=O) of 426 nm. For the same molecule, the emission maximum (in Cc1ccccc1) was 419 nm, the emission maximum (in ClC(Cl)(Cl)Cl) was 426 nm and the emission maximum (in ClC(Cl)Cl) was 426 nm. For the same molecule, the emission maximum (in ClCCl) was 426 nm, the emission maximum (in OCC(O)CO) was 426 nm and the emission maximum (in OCCO) was 426 nm.
For `CN(C)c1ccc2nc(-c3ccc(C(=O)Nc4ccccc4)cc3)sc2c1`, the emission maximum (in C1CCCCC1) was 427 nm, the emission maximum (in CC#N) was 553 nm and the emission maximum (in CC(C)O) was 534 nm. It also gave an emission maximum (in CO) of 565 nm, an emission maximum (in CS(C)=O) of 564 nm and an emission maximum (in ClC(Cl)Cl) of 494 nm. The emission maximum (in c1ccccc1) was 475 nm.
Molecule `Cc1ccc(-c2oc3cccc4c5c(-c6ccc(C)cc6)/c(=N/S(=O)(=O)C(F)(F)F)oc6cccc(c2c34)c65)cc1` has an emission maximum (in ClC(Cl)Cl) of 577 nm.
In the case of `c1ccc(-n2c(-c3ccc(-n4c5ccccc5c5ccccc54)cc3)nc3nccnc32)cc1`, the emission maximum (in CC#N) is reported as 490 nm.
`Cc1nnc(-c2cc(-n3c4ccccc4c4ccccc43)c(-n3c4ccccc4c4ccccc43)cc2-c2nnc(C)o2)o1` gave an emission maximum (in CC#N) of 504.62 nm, an emission maximum (in Cc1ccccc1) of 453 nm and an emission maximum (in ClCCl) of 485.51 nm.
Work on `FC(F)(F)c1cc2n(n1)[B-]1(c3ccccc3-c3ccccc31)[n+]1ccc3ccccc3c1-2` yielded an emission maximum (in C1CCCCC1) of 490 nm, an emission maximum (in Cc1ccccc1) of 538 nm and an emission maximum (in ClCCl) of 564 nm.
`CCOC(=O)c1c(-c2cc3cc(OC)ccc3oc2=O)nn(-c2cccc(Cl)c2)c1C(=O)OCC` gave an emission maximum (in ClCCl) of 445 nm.
